Results: patent US8653083B2, “Hedgehog pathway antagonists to treat disease” (The Johns Hopkins University, priority 2005, dated 2014)
pIC50: −log10 of the molar value. Where a name gives a salt, the structure may show the parent alone.

tested on: Sonic hedgehog (Shh) signaling; experiment: Cultured cell based Sonic hedgehog (Shh) signaling assay, luciferase reporter; conditions: not given
Procedure: A library of drugs was previously tested in humans for agents that antagonize Hedgehog signaling. […] The assays used for the screen for Hh pathway antagonists proceeded essentially as described in reference 5. Briefly, each candidate compound was added at 10 uM to a cultured cell based Sonic hedgehog (Shh) signaling assay in high through-put format. This assay utilized cells with a stably integrated firefly luciferase reporter that is responsive to ShhN signaling. These cells also contain a stably integrated, constitutively expressed Renila luciferase gene that can be used for normalization of response to Shh, and used also to monitor cell health.

`C[C@@H]1C[C@@H]([C@H](O)CC2CC(=O)NC(=O)C2)C(=O)[C@@H](C)C1` [Cycloheximide] and `CC1=C2C[C@H]3[C@@H](CC=C4C[C@@H](O)CC[C@@]43C)[C@@H]2CC[C@]12O[C@@H]1C[C@H](C)CN[C@H]1[C@H]2C` [Cyclopamine] fall in the same range of pIC50: 6.00 to 6.52 for the first, 6.00 to 6.52 for the second.

Compared with `C=C(C)[C@H]1Cc2c(ccc3c2O[C@@H]2COc4cc(OC)c(OC)cc4[C@@H]2C3=O)O1` [ROTENONE], `COc1cc2c(c(OC)c1OC)-c1ccc(=O)c(O)cc1[C@@H](NC(C)=O)CC2` [COLCHICEINE] is higher in pIC50: 5.52 to 6.00 for the first, 6.00 to 6.52 for the second.

same assay, conditions: Hh pathway inhibition; cells with ShhN-responsive firefly luciferase reporter, normalized to Renila luciferase; titration of 10 uM hits; read-out: IC50

First: CC(COc1ccccc1)N(CCCl)Cc1ccccc1 (centres unmarked) [PHENOXYBENZAMINE HYDROCHLORIDE]
Second: CC(CN1c2ccccc2Sc2ccccc21)N(C)C (centres unmarked) [PROMETHAZINE HYDROCHLORIDE]
The pIC50 of the first is lower: 5.52 to 6.00 for the first, 6.00 to 6.52 for the second. The second is the more potent here.

`CN(C)CCCN1c2ccccc2CCc2ccccc21` [Imipramine] and `CC(CN(C)C)CN1c2ccccc2CCc2ccccc21` (centres unmarked) [TRIMIPRAMINE MALEATE] fall in the same range of pIC50: 5.52 to 6.00 for the first, 5.52 to 6.00 for the second.

First: OCCOCCN1CCN(C(c2ccccc2)c2ccc(Cl)cc2)CC1 (centres unmarked) [Hydroxyzine]
Second: c1cc(CN2CCCCC2)cc(OCCCNc2nc3ccccc3s2)c1 [Zolantidine]
The pIC50 of the first is higher: 6.00 to 6.52 for the first, 5.52 to 6.00 for the second. The first is the more potent here.

First: CN1CCN(C2=Nc3ccccc3Sc3ccc(Cl)cc32)CC1 [Clothiapine]
Second: CN1CCN(C2=Nc3ccccc3Oc3ccc(Cl)cc32)CC1 [LOXAPINE SUCCINATE]
The pIC50 of the first is lower: 5.52 to 6.00 for the first, 6.52 to 7.00 for the second. The second is the more potent here.

First: CC[C@]1(O)C[C@H]2CN(CCc3c([nH]c4ccccc34)[C@@](C(=O)OC)(c3cc4c(cc3OC)N(C=O)[C@H]3[C@@](O)(C(=O)OC)[C@H](OC(C)=O)[C@]5(CC)C=CCN6CC[C@]43[C@@H]65)C2)C1 [Vincristine sulfate]
Second: CC[C@]1(O)C[C@@H]2CN(CCc3c([nH]c4ccccc34)[C@@](C(=O)OC)(c3cc4c(cc3OC)N(C)[C@H]3[C@@](O)(C(=O)OC)[C@H](OC(C)=O)[C@]5(CC)C=CCN6CC[C@]43[C@@H]65)C2)C1 [Vinblastine sulfate]
The pIC50 of the first is higher: greater than 7.00 for the first, 6.00 to 6.52 for the second.

`CC[C@]1(O)C[C@@H]2CN(CCc3c([nH]c4ccccc34)[C@@](C(=O)OC)(c3cc4c(cc3OC)N(C)[C@H]3[C@@](O)(C(N)=O)[C@H](O)[C@]5(CC)C=CCN6CC[C@]43[C@@H]65)C2)C1` [Vindesine] and `CCC1=C[C@@H]2CN(C1)Cc1c([nH]c3ccccc13)[C@@](C(=O)OC)(c1cc3c(cc1OC)N(C)[C@H]1[C@@](O)(C(=O)OC)[C@H](OC(C)=O)[C@]4(CC)C=CCN5CC[C@]31[C@@H]54)C2` [Vinorelbine tartrate] cannot be ordered by pIC50: greater than 7.00 for the first, greater than 7.00 for the second.

Compared with `CCC(C)n1ncn(-c2ccc(N3CCN(c4ccc(OCC5COC(Cn6cncn6)(c6ccc(Cl)cc6Cl)O5)cc4)CC3)cc2)c1=O` (racemic) [Itraconazole, (±)-cis-4-[4-[4-[4-[[2-(2,4-dichlorophenyl)-2-(1H-1,2,4-triazol-1-yl-methyl)-1,3-dioxolan-4-yl)methoxy]phenyl]-1-piperazinyl]phenyl]-2,4-dihydro-2-(1-methylpropyl)-3H-1,2,4-triazol-3-one], `O=C(c1ccc(OCCN2CCCCC2)cc1)c1c(-c2ccc(O)cc2)sc2cc(O)ccc12` [Raloxifene hydrochloride] is lower in pIC50: 6.52 for the first, 5.52 to 6.00 for the second.

`CN(C)CCC=C1c2ccccc2CCc2ccccc21` [Amitriptyline] and `CN(C)CCCN1c2ccccc2Sc2ccccc21` [PROMAZINE HYDROCHLORIDE] fall in the same range of pIC50: 5.52 to 6.00 for the first, 5.52 to 6.00 for the second.

`CN1CCC(=C2c3ccccc3Sc3ccccc32)CC1` [PIMETHIXENE MALEATE] and `Nc1ccc(S(=O)(=O)Nc2cnc3ccccc3n2)cc1` [SULFAQUINOXALINE SODIUM] fall in the same range of pIC50: 6.00 to 6.52 for the first, 6.00 to 6.52 for the second.

First: Cc1ccc2c(Cl)cc(Cl)c(O)c2n1 [Chlorquinaldol, 5,7-Dichloro-2-methyl-8-quinolinol]
Second: Cc1cc(NS(=O)(=O)c2ccc(N)cc2)nc(C)n1 [Sulfisomidine]
The pIC50 of the first is lower: 5.52 for the first, 6.00 to 6.52 for the second. The second is the more potent here.

First: CC12CCC(CC1)C(C)(C)O2 [Eucalyptol]
Second: C[C@H]1[C@@H](O)O[C@@H]2O[C@@]3(C)CC[C@H]4[C@H](C)CC[C@@H]1[C@@]24OO3 [DIHYDROARTEMISIMIN]
The pIC50 of the first is higher: 6.00 to 6.52 for the first, 5.52 to 6.00 for the second.

First: CCOC(=O)NC1=C(N2CC2)C(=O)C(NC(=O)OCC)=C(N2CC2)C1=O [Diaziquone]
Second: C=C1C(=O)O[C@H]2C[C@@H]1C(OC(C)=O)C/C(C)=C/CC/C(C)=C/CC[C@@]2(C)O (some centres unmarked) [CRASSIN ACETATE]
The pIC50 of the first is higher: 6.00 to 6.52 for the first, 5.52 to 6.00 for the second.

First: COc1ccc(C[C@H]2NC[C@H](O)[C@H]2OC(C)=O)cc1 [Anisomycin]
Second: CC(=O)Oc1ccc2c(c1)CC[C@@H]1[C@@H]2CC[C@]2(C)[C@@H](O)CC[C@@H]12 [ESTRADIOL ACETATE]
The pIC50 of the first is higher: greater than 7.00 for the first, 5.52 to 6.00 for the second.

Compared with `Nc1ncn([C@@H]2O[C@H](CO)[C@@H](O)[C@H]2O)c(=O)n1` [5-AZACYTIDINE], `CC[C@H]1/C=C/C=C/C[C@@H](C)[C@H](O)[C@@](C)(O)C(=O)[C@@H](C)[C@H](O)[C@@H](C)C(=O)[C@@H](C)[C@H](O)[C@@H](C)/C=C/C(=O)O[C@@H]2[C@H](C)[C@H](CC1)O[C@]1(CC[C@H](C)[C@H](C[C@@H](C)O)O1)[C@H]2C` [OLIGOMYCIN] is higher in pIC50: 5.52 to 6.00 for the first, greater than 7.00 for the second.

`CC[C@@H](C(=O)[C@@H](C)[C@@H](O)[C@H](C)[C@@H]1O[C@@H]([C@@H](CC)C(=O)O)CC[C@@H]1C)[C@H]1O[C@]2(C=C[C@@H](O)[C@]3(CC[C@@](C)([C@H]4CC[C@](O)(CC)[C@H](C)O4)O3)O2)[C@H](C)C[C@@H]1C` [SALINOMYCIN, SODIUM] gave a pIC50 greater than 7.00.

tested on: AT6.3 metastasis model; experiment: AT6.3 Dunning prostate cancer metastasis model, survival; assay type: in vivo, mice; conditions: cyclopamine comparator, dose not given

In the case of `CC1=C2C[C@H]3[C@@H](CC=C4C[C@@H](O)CC[C@@]43C)[C@@H]2CC[C@]12O[C@@H]1C[C@H](C)CN[C@H]1[C@H]2C` [Cyclopamine], the survival was “extending survival”.

tested on: 22RV1 xenografts; experiment: 22RV1 human prostate cancer xenografts in athymic mice, tumor growth; assay type: in vivo; conditions: itraconazole 37.5 mg/kg

`CCC(C)n1ncn(-c2ccc(N3CCN(c4ccc(OCC5COC(Cn6cncn6)(c6ccc(Cl)cc6Cl)O5)cc4)CC3)cc2)c1=O` (racemic) [Itraconazole, (±)-cis-4-[4-[4-[4-[[2-(2,4-dichlorophenyl)-2-(1H-1,2,4-triazol-1-yl-methyl)-1,3-dioxolan-4-yl)methoxy]phenyl]-1-piperazinyl]phenyl]-2,4-dihydro-2-(1-methylpropyl)-3H-1,2,4-triazol-3-one] showed a tumor volume change of −100 % volume.
